Data reported in US20070066686A1, “Infusion preparation containing (2r)-2-propyloctanoic acid as at the active ingredient” (ONO PHARMACEUTICAL CO., LTD., priority 2003, published 2007).

Test system: dog
Assay: single intravenous administration toxicity using a dog
Format: in vivo
Settings: dose of 100 mg/kg
Description: Toxicity of (2R)-2-propyloctanoic acid or a salt thereof is very low, and it is considered to be sufficiently safe for the use as a pharmaceutical drug.

Q: Which “death after single intravenous administration” value does the source give for CCCCCC[C@@H](CCC)C(=O)O [(2R)-2-propyloctanoic acid] here?
A: did not result in death
